# Reference: patent US6737383B1, “Herbicidal oxadiazolidines” (priority 1999, dated 2004)
# Tests used:
# [1] = tested on: surinam grass; test: Test B pre/postemergence surinam grass; assay type: in vivo, Brachiaria decumbens
# How it was run: (§1)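 Test chemicals in a non-phytotoxic solvent mixture with surfactant were sprayed preemergence onto planted seeds and postemergence onto plants 2 to 18 cm tall (1- to 4-leaf stage). After twelve to sixteen days in a greenhouse, injury was visually rated against untreated controls from 0 (no effect) to 10 (complete control).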
# [2] = tested on: wheat; test: Test B pre/postemergence wheat; assay type: in vivo, Triticum aestivum
# How it was run: as §1
# [3] = tested on: sugar beet; test: Test B pre/postemergence sugar beet; assay type: in vivo, Beta vulgaris
# How it was run: as §1
# [4] = tested on: blackgrass; test: Test B pre/postemergence blackgrass; assay type: in vivo, Alopecurus myosuroides
# How it was run: as §1
# [5] = tested on: duck salad; test: Test B flood test duck salad; assay type: in vivo, Heteranthera limosa
# How it was run: (§2)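 Each value is a visual injury score relative to controls, with 10 meaning complete control and 0 no effect. Evaluation took place twelve to sixteen days after the 2-leaf-stage plants were treated and kept in the greenhouse.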
# [6] = tested on: smallflower flatsedge; test: Test B flood test smallflower flatsedge; assay type: in vivo, Cyperus difformis
# How it was run: as §2
# [7] = tested on: crabgrass; test: Test B pre/postemergence crabgrass; assay type: in vivo, Digitaria sanguinalis
# How it was run: as §1
# [8] = tested on: pigweed; test: Test B pre/postemergence pigweed; assay type: in vivo, Amaranthus retroflexus
# How it was run: as §1
# [9] = tested on: rice; test: Test B flood test rice; assay type: in vivo, Oryza sativa
# How it was run: as §2
# [10] = tested on: cocklebur; test: Test B pre/postemergence cocklebur; assay type: in vivo, Xanthium strumarium
# How it was run: as §1
# [11] = tested on: giant foxtail; test: Test B pre/postemergence giant foxtail; assay type: in vivo, Setaria faberii
# How it was run: as §1
# [12] = tested on: morningglory; test: Test B pre/postemergence morningglory; assay type: in vivo, Ipomoea hederacea
# How it was run: as §1
# [13] = tested on: corn; test: Test B pre/postemergence corn; assay type: in vivo, Zea mays
# How it was run: as §1
# [14] = tested on: velvetleaf; test: Test B pre/postemergence velvetleaf; assay type: in vivo, Abutilon theophrasti
# How it was run: as §1
# [15] = tested on: rape; test: Test B pre/postemergence rape; assay type: in vivo, Brassica napus
# How it was run: as §1
# [16] = tested on: purple nutsedge; test: Test B pre/postemergence purple nutsedge; assay type: in vivo, Cyperus rotundus
# How it was run: as §1
# [17] = Preemergence, Rate 62 g/ha, scale of 0 to 10 where 0 is no effect and 10 is complete control
# [18] = Preemergence, Rate 250 g/ha, scale of 0 to 10 where 0 is no effect and 10 is complete control
# [19] = Preemergence, Rate 500 g/ha, scale of 0 to 10 where 0 is no effect and 10 is complete control
# [20] = Rate 62 g/ha, Postemergence, scale 0 to 10 (0 no effect, 10 complete control)
# [21] = Rate 125 g/ha, Postemergence, scale of 0 to 10 where 0 is no effect and 10 is complete control
# [22] = Rate 250 g/ha, Postemergence, scale of 0 to 10 where 0 is no effect and 10 is complete control
# [23] = Rate 500 g/ha, Postemergence, scale 0 to 10, 0 no effect, 10 complete control
# [24] = Rate 62 g/ha, headed Pre-emergence (flood test species), scale 0 to 10 (0 no effect, 10 complete control)
# [25] = Rate 125 g/ha, Pre-emergence, flood test species, scale 0 to 10 where 0 is no effect and 10 is complete control
# [26] = Rate 250 g/ha, Pre-emergence, flood-test species, scale 0 to 10, 0 is no effect, 10 is complete control
# [27] = Rate 500 g/ha, Pre-emergence, flood test species, scale 0 to 10 (0 no effect, 10 complete control)
smiles,measurement,setting,value
CCc1cccc(CC)c1-n1c(=O)on(C(=O)N(c2ccc(F)cc2)C(C)C)c1=O [Compound 304],B. signalgrass plant response rating,[1]; [17],0
same,"B. signalgrass plant response rating (0 to 10 scale, 0 is no effect, 10 is complete control)","[1]; Preemergence, Rate 125 g/ha",0
same,B. signalgrass plant response rating,[1]; [18],0
same,B. signalgrass plant response rating,[1]; [19],0
same,B. signalgrass plant response rating,[1]; [20],0
same,B. signalgrass plant response rating,[1]; [21],0
same,"Plant response rating, B. signalgrass",[1]; [22],0
same,B. signalgrass plant response rating,[1]; [23],0
same,Wheat plant response rating,[2]; [17],0
same,Wheat plant response rating (0 to 10 scale),"[2]; Preemergence, Rate 125 g/ha",0
same,Wheat plant response rating,[2]; [18],0
same,Wheat plant response rating,[2]; [19],0
same,Wheat plant response rating,[2]; [20],0
same,Wheat plant response rating,[2]; [21],0
same,"Plant response rating, Wheat",[2]; [22],0
same,Sugarbeets plant response rating,[3]; [17],0
same,Sugarbeets plant response rating (0 to 10 scale),"[3]; Preemergence, Rate 125 g/ha",1
same,Sugarbeets plant response rating,[3]; [18],6
same,Sugarbeets plant response rating,[3]; [19],6
same,Sugarbeets plant response rating,[3]; [20],0
same,Sugarbeets plant response rating,[3]; [21],0
same,"Plant response rating, Sugarbeets",[3]; [22],0
same,Blackgrass plant response rating,[4]; [17],0
same,Blackgrass plant response rating (0 to 10 scale),"[4]; Preemergence, Rate 125 g/ha",0
same,Blackgrass plant response rating,[4]; [18],0
same,Blackgrass plant response rating,[4]; [19],0
same,Blackgrass plant response rating,[4]; [20],0
same,Blackgrass plant response rating,[4]; [21],0
same,"Plant response rating, Blackgrass",[4]; [22],0
same,Blackgrass plant response rating,[4]; [23],4
same,Ducksalad plant response rating,[5]; [24],0
same,Ducksalad plant response rating,[5]; [25],0
same,Ducksalad plant response rating,[5]; [26],0
same,Ducksalad plant response rating,[5]; [27],0
same,S. Flatsedge plant response rating,[6]; [24],0
same,S. Flatsedge plant response rating,[6]; [25],0
same,S. Flatsedge plant response rating,[6]; [26],0
same,S. Flatsedge plant response rating,[6]; [27],0
same,Crabgrass plant response rating,[7]; [17],3
same,Crabgrass plant response rating (0 to 10 scale),"[7]; Preemergence, Rate 125 g/ha",4
same,Crabgrass plant response rating,[7]; [18],6
same,Crabgrass plant response rating,[7]; [19],8
same,Crabgrass plant response rating,[7]; [20],0
same,Crabgrass plant response rating,[7]; [21],0
same,"Plant response rating, Crabgrass",[7]; [22],0
same,Redroot pigweed plant response rating,[8]; [17],0
same,Redroot pigweed plant response rating (0 to 10 scale),"[8]; Preemergence, Rate 125 g/ha",0
same,Redroot pigweed plant response rating,[8]; [18],0
same,Redroot pigweed plant response rating,[8]; [19],0
same,Redroot pigweed plant response rating,[8]; [20],3
same,Redroot pigweed plant response rating,[8]; [21],3
same,"Plant response rating, Redroot pigweed",[8]; [22],5
same,Rice plant response rating,[9]; [24],0
same,Rice plant response rating,[9]; [25],0
same,Rice plant response rating,[9]; [26],0
same,Rice plant response rating,[9]; [27],0
same,Cocklebur plant response rating (0 to 10 scale),"[10]; Preemergence, Rate 125 g/ha",0
same,Cocklebur plant response rating,[10]; [18],0
same,Cocklebur plant response rating,[10]; [19],0
same,Cocklebur plant response rating,[10]; [20],0
same,Cocklebur plant response rating,[10]; [21],0
same,"Plant response rating, Cocklebur",[10]; [22],0
same,Cocklebur plant response rating,[10]; [23],0
same,Giant foxtail plant response rating,[11]; [17],0
same,Giant foxtail plant response rating (0 to 10 scale),"[11]; Preemergence, Rate 125 g/ha",4
same,Giant foxtail plant response rating,[11]; [18],6
same,Giant foxtail plant response rating,[11]; [19],6
same,Giant foxtail plant response rating,[11]; [20],0
same,Giant foxtail plant response rating,[11]; [21],0
same,"Plant response rating, Giant foxtail",[11]; [22],0
same,Morningglory plant response rating,[12]; [17],0
same,Morningglory plant response rating (0 to 10 scale),"[12]; Preemergence, Rate 125 g/ha",0
same,Morningglory plant response rating,[12]; [18],0
same,Morningglory plant response rating,[12]; [19],0
same,Morningglory plant response rating,[12]; [20],3
same,Morningglory plant response rating,[12]; [21],3
same,"Plant response rating, Morningglory",[12]; [22],3
same,Corn plant response rating,[13]; [17],0
same,Corn plant response rating (0 to 10 scale),"[13]; Preemergence, Rate 125 g/ha",0
same,Corn plant response rating,[13]; [18],0
same,Corn plant response rating,[13]; [19],0
same,Corn plant response rating,[13]; [20],0
same,Corn plant response rating,[13]; [21],0
same,"Plant response rating, Corn",[13]; [22],0
same,Corn plant response rating,[13]; [23],0
same,Velvetleaf plant response rating,[14]; [17],0
same,Velvetleaf plant response rating (0 to 10 scale),"[14]; Preemergence, Rate 125 g/ha",0
same,Velvetleaf plant response rating,[14]; [18],0
same,Velvetleaf plant response rating,[14]; [19],0
same,Velvetleaf plant response rating,[14]; [20],0
same,Velvetleaf plant response rating,[14]; [21],0
same,"Plant response rating, Velvetleaf",[14]; [22],0
same,Rape plant response rating,[15]; [17],0
same,Rape plant response rating (0 to 10 scale),"[15]; Preemergence, Rate 125 g/ha",0
same,Rape plant response rating,[15]; [18],0
same,Rape plant response rating,[15]; [19],0
same,Rape plant response rating,[15]; [20],0
same,Rape plant response rating,[15]; [21],0
same,"Plant response rating, Rape",[15]; [22],0
same,Nutsedge plant response rating,[16]; [17],0
same,Nutsedge plant response rating (0 to 10 scale),"[16]; Preemergence, Rate 125 g/ha",0
same,Nutsedge plant response rating,[16]; [18],0
same,Nutsedge plant response rating,[16]; [19],0
same,Nutsedge plant response rating,[16]; [20],0
same,Nutsedge plant response rating,[16]; [21],0
same,"Plant response rating, Nutsedge",[16]; [22],0
